Measured values as given in patent publication US12121514B2, “Nonselective metabotropic glutamate receptor activators for treatment of attention deficit disorder and 22Q syndrome” (THE CHILDREN'S HOSPITAL OF PHILADELPHIA, priority 2015, dated 2024).
Where “and” joins values, the source holds several entries; their conditions need not be identical. Equal values may be shown once.

Test system: adolescent subjects with ADHD and at least one genetic alteration in an mGluR network gene
Assay: Vanderbilt ADHD score (items 1-18, parent), Phase Ib trial of NFC-1
Format: in vivo, human
From the text: The Vanderbilt Rating Scale is a measure that can be completed by parents or teachers (separate forms, see Vanderbilt Rating Scale Parents and Vanderbilt Rating Scale Teachers). The Vanderbilt scale rates the child's behavior on items such as attention, finishing tasks, hyperactivity, difficulty waiting, and measures of conduct or oppositional defiant disorders—as well as measures of overall school performance and interactions with others. The first 18 items on the Vanderbilt scale correspond to those of the ADHD Rating Scale IV above while the Vanderbilt scale also includes items 19-47 related to other mental disorders including ODD (items 19-26), conduct disorder (items 27-40), anxiety (items 41, 42, and 47), and depression (items 43-46). Each of the behavioral assessment items on the Vanderbilt Scale are rated 0, 1, 2, or 3, with 0=never occurring; 1=occasionally, 2=often, and 3=very often. Thus, the ADHD Rating Scale IV, ADHD Rating Scale V, and items 1-18 of the Vanderbilt Rating Scale are equivalent scales, while additional items on the Vanderbilt Scale assess co-morbid phenotypes and disorders.
Each of the items are rated on a scale of 0, 1, 2, or 3, with 0=never; 1=occasionally, 2=often, and 3=very often. A total score of 0 to 54 is computed based on the answers to the 18 questions.
As used herein an “ADHD rating scale score,” “ADHD score” or “Vanderbilt ADHD score” are used interchangeably to refer to the computed score of the 18 items of the ADHD Rating Scale IV or V or the first 18 items of the Vanderbilt Rating Scale in any of their associated versions, e.g., for parent, teacher, or clinician to complete, and for a pediatric subject or adult subject. Clinical trials may assess the impact of drug or placebo on the ADHD score or Vanderbilt ADHD score (i.e. the score of 0 to 54 based on the first 18 items in the ADHD or Vanderbilt rating scale). In some cases, results of a clinical trial population may be analyzed by comparing the average score or a percentage change in score over time of administration of drug.
An open-label Phase Ib clinical trial was initiated to investigate the safety, pharmacokinetics and efficacy of NFC-1 (fasoracetam monohydrate) in adolescent subjects between the ages of 12 and 17 previously diagnosed with ADHD who also had at least one genetic alteration in an mGluR network gene.
Dose-escalation phase of the trial followed the PK and initial safety assessment and ran over a 5-week period. During week 1, all subjects were administered placebo capsules twice daily. After one week of placebo treatment, patients were started on 50 mg bid NFC-1 for 1 week. If safety and responsiveness data from prior dose level of fasoracetam indicated it was appropriate, subjects were then escalated to the next higher dose (100, 200, or 400 mg). […] Of the 30 trial subjects, 3 received a maximum dose of 100 mg, 9 received a maximum dose of 200 mg, and the remaining 18 received a maximum dose of 400 mg.
All efficacy assessments, except actigraphy, were made at study enrollment (“enrollment baseline”) and again, including actigraphy, once-per-week for the placebo week (“week 1” or “placebo baseline”) and at each of the 4 weeks of NFC-1 treatment. These efficacy measures include items 1-18 of the Vanderbilt scale assessing symptoms related to inattentiveness and hyperactivity-impulsiveness as well as additional questions 19-47 of the Vanderbilt scale assessing other behavioral symptoms (conducted by parent), actigraphy for quantitative measurement of activity, Quotient® ADHD test for objective measurement of micro-motion and shifts in attention state, PERMP-Math test, and CGI-I and CGI-S for assessment of global functioning. […]

[1] = relative to placebo (week 1) baseline, Tier 3, Week 3, up to 100 mg bid
[2] = relative to placebo (week 1) baseline, Tier 3, Week 4, 200 mg bid
[3] = relative to placebo (week 1) baseline, Tier 3, Week 4, up to 200 mg bid
[4] = relative to placebo (week 1) baseline, Tier 3, Week 5, 400 mg bid
[5] = relative to placebo (week 1) baseline, Tier 3, Week 5, up to 400 mg bid
[6] = relative to pre-study (enrollment) baseline, Overall, Week 2, 50 mg bid
[7] = relative to pre-study (enrollment) baseline, Overall, Week 3, 100 mg bid
[8] = relative to pre-study (enrollment) baseline, Overall, Week 3, up to 100 mg bid
[9] = relative to pre-study (enrollment) baseline, Overall, Week 4, 200 mg bid
[10] = relative to pre-study (enrollment) baseline, Overall, Week 4, up to 200 mg bid
[11] = relative to pre-study (enrollment) baseline, Overall, Week 5, 400 mg bid
[12] = relative to pre-study (enrollment) baseline, Tier 1, Week 2, 50 mg bid
[13] = relative to pre-study (enrollment) baseline, Tier 1, Week 3, 100 mg bid
[14] = relative to pre-study (enrollment) baseline, Tier 1, Week 3, up to 100 mg bid
[15] = relative to pre-study (enrollment) baseline, Tier 1, Week 4, 200 mg bid

For `O=C1CC[C@H](C(=O)N2CCCCC2)N1` [NFC-1, fasoracetam monohydrate], the “Percent of subjects demonstrating robust improvement in Vanderbilt ADHD score (at least 40% decrease)” value [1] was 0%, the “Percent of subjects with improvement in Vanderbilt ADHD score (at least 25% decrease)” value [1] was 20% and the “Percent of subjects completing the dose escalation to 400 mg bid that show improvement in Vanderbilt ADHD scores (at least 25% decrease)” value [2] was 0%. For the same molecule, the “Percent of subjects completing the dose escalation to 400 mg bid that show robust improvement in Vanderbilt ADHD scores (at least 40% decrease)” value [2] was 0%, the “Percent of subjects demonstrating robust improvement in Vanderbilt ADHD score (at least 40% decrease)” value [3] was 0% and the “Percent of subjects with improvement in Vanderbilt ADHD score (at least 25% decrease)” value [3] was 0%. The “Percent of subjects completing the dose escalation to 400 mg bid that show improvement in Vanderbilt ADHD scores (at least 25% decrease)” value [4] was 0%, the “Percent of subjects completing the dose escalation to 400 mg bid that show robust improvement in Vanderbilt ADHD scores (at least 40% decrease)” value [4] was 0% and the “Percent of subjects demonstrating robust improvement in Vanderbilt ADHD score (at least 40% decrease)” value [5] was 0%. For the same molecule, the “Percent of subjects with improvement in Vanderbilt ADHD score (at least 25% decrease)” value [5] was 0%, the “Percent of subjects completing the dose escalation to 400 mg bid that show improvement in Vanderbilt ADHD scores (at least 25% decrease)” value [6] was 41% and the “Percent of subjects completing the dose escalation to 400 mg bid that show robust improvement in Vanderbilt ADHD scores (at least 40% decrease)” value [6] was 35%. For the same molecule, the “Percent of subjects demonstrating robust improvement in Vanderbilt ADHD score (at least 40% decrease)” value [6] was 32%, the “Percent of subjects with improvement in Vanderbilt ADHD score (at least 25% decrease)” value [6] was 43% and the “Percent of subjects completing the dose escalation to 400 mg bid that show improvement in Vanderbilt ADHD scores (at least 25% decrease)” value [7] was 53%. The “Percent of subjects completing the dose escalation to 400 mg bid that show robust improvement in Vanderbilt ADHD scores (at least 40% decrease)” value [7] was 24%, the “Percent of subjects demonstrating robust improvement in Vanderbilt ADHD score (at least 40% decrease)” value [8] was 36% and the “Percent of subjects with improvement in Vanderbilt ADHD score (at least 25% decrease)” value [8] was 54%. For the same molecule, the “Percent of subjects completing the dose escalation to 400 mg bid that show improvement in Vanderbilt ADHD scores (at least 25% decrease)” value [9] was 53%, the “Percent of subjects completing the dose escalation to 400 mg bid that show robust improvement in Vanderbilt ADHD scores (at least 40% decrease)” value [9] was 35% and the “Percent of subjects demonstrating robust improvement in Vanderbilt ADHD score (at least 40% decrease)” value [10] was 43%. The “Percent of subjects with improvement in Vanderbilt ADHD score (at least 25% decrease)” value [10] was 68%, the “Percent of subjects completing the dose escalation to 400 mg bid that show improvement in Vanderbilt ADHD scores (at least 25% decrease)” value [11] was 82% and the “Percent of subjects completing the dose escalation to 400 mg bid that show robust improvement in Vanderbilt ADHD scores (at least 40% decrease)” value [11] was 47%. For the same molecule, the “Percent of subjects with improvement in Vanderbilt ADHD score (at least 25% decrease)” value (relative to pre-study (enrollment) baseline, Overall, Week 5, up to 400 mg bid, monohydrate) was 78% and 75-80%, the “Percent of subjects completing the dose escalation to 400 mg bid that show improvement in Vanderbilt ADHD scores (at least 25% decrease)” value [12] was 56% and the “Percent of subjects completing the dose escalation to 400 mg bid that show robust improvement in Vanderbilt ADHD scores (at least 40% decrease)” value [12] was 44%. The “Percent of subjects demonstrating robust improvement in Vanderbilt ADHD score (at least 40% decrease)” value [12] was 35%, the “Percent of subjects with improvement in Vanderbilt ADHD score (at least 25% decrease)” value [12] was 47% and the “Percent of subjects completing the dose escalation to 400 mg bid that show improvement in Vanderbilt ADHD scores (at least 25% decrease)” value [13] was 89%. For the same molecule, the “Percent of subjects completing the dose escalation to 400 mg bid that show robust improvement in Vanderbilt ADHD scores (at least 40% decrease)” value [13] was 44%, the “Percent of subjects demonstrating robust improvement in Vanderbilt ADHD score (at least 40% decrease)” value [14] was 50% and the “Percent of subjects with improvement in Vanderbilt ADHD score (at least 25% decrease)” value [14] was 75%. The “Percent of subjects completing the dose escalation to 400 mg bid that show improvement in Vanderbilt ADHD scores (at least 25% decrease)” value [15] was 89%, the “Percent of subjects completing the dose escalation to 400 mg bid that show robust improvement in Vanderbilt ADHD scores (at least 40% decrease)” value [15] was 56% and the “Percent of subjects demonstrating robust improvement in Vanderbilt ADHD score (at least 40% decrease)” value (relative to pre-study (enrollment) baseline, Tier 1, Week 4, up to 200 mg bid) was 56%.
